According to US20130217615A1, “COMBINATION TREATMENT OF MAJOR DEPRESSIVE DISORDER” (SHIRE LLC, priority 2010, published 2013):
“Also recorded” adds a separate entry of the source.

How the values were obtained:
[1] = test system: major depressive disorder (MDD); test: Multicenter, randomized, double-blind, placebo-controlled study of LDX (Vyvanse) as augmentation to escitalopram: efficacy (MADRS, HAM-D17, QIDS-SR, CGI); type: in vivo, human; settings: for HAM-D17 change in total score, LS mean change (90% CI): week 8 to 14
Protocol: In this investigational 14-week, double-blind, randomized, placebo-controlled study (n=246), Vyvanse or placebo was administered orally as an adjunctive therapy to adults between the ages of 18 and 55, who experienced residual depressive symptoms following treatment with 20 mg/day escitalopram/LEXAPRO® (prospective 8-week period). Residual depressive symptoms were defined as 17—Item Hamilton Rating Scale for Depression (HAM-D 17) score at the end of this prospective phase (n=177). In the double blind 6-week period, those with residual depressive symptoms were randomized to receive escitalopram plus either placebo or Vyvanse (dose range of 20 to 50 mg per day) on a 1:1 basis.
The primary study endpoint was the mean change in the total MADRS score in non-remitters after 6 weeks of blinded treatment. Non-remitters were defined as having a total Montgomery-Asberg Depression Rating Scale (MADRS) score>10 at randomization, following 8 weeks of escitalopram treatment (n=129). The key secondary outcome was the Sheehan Disability Scale (SDS). Both the MADRS and SDS are well-validated and widely used assessments in MDD research; the MADRS provides evidence of symptomatic improvement while the SDS reflects the functional impact of the symptomatic improvement. The significance level was prospectively set at 10%.
This was a multicenter, randomized, double-blind, parallel-group, placebo-controlled study in participants with major depressive disorder (MDD) conducted at 15 sites in the United States from July 2009 to August 2010. The study had 4 phases: screening and washout (if necessary), 8 weeks of open-label escitalopram oxalate, 6 weeks of double-blind LDX treatment as augmentation therapy to escitalopram, and a safety follow-up.
Eligible participants were adults (18-55 y) with a primary diagnosis of nonpsychotic MDD according to the Structured Clinical Interview for the Diagnostic and Statistical Manual of Mental Disorders, Fourth Edition—Text Revision™ disorders—Axis I (SCID-I) (American Psychiatric Association (Diagnostic and Statistical Manual of Mental Disorders, Fourth Edition Text Revision, Washington D.C., American Psychiatric Association, 2000). Diagnosis was confirmed using Module A of the Mini-International Psychiatric Interview (MINI). Participants not receiving antidepressants at screening were required to have a baseline Hamilton Rating Scale for Depression-17 items (HAM-D17) score 22; those receiving antidepressants at screening had to have a HAM-D17 score 0 and not to have achieved remission based on investigator opinion following at least 6 weeks of treatment. Women of childbearing age were required to be nonpregnant/nonlactating and on adequate contraception. Permitted concomitant therapies included hormonal therapy, thyroid medication, […], bronchodilator inhalers, nonsedating antihistamines, antibiotics, and over the counter medications not affecting blood pressure (BP), heart rate, or the central nervous system.
After screening/washout, participants underwent 8 weeks of open-label escitalopram monotherapy (10 mg/d at week 1; 20 mg/d thereafter). At week 8 (the augmentation baseline), those with a tolerable safety profile and residual MDD symptoms, defined as a HAM-D17 score were randomized 1:1 to receive LDX or placebo in a 6-week double-blind phase. Participants were stratified by baseline remission status (escitalopram remitters: Montgomery-Asberg Depression Rating Scale [MADRS] total score 10; escitalopram nonremitters: MADRS score >10) to enhance between-treatment balance. Treatment with LDX was initiated at 20 mg/d. The dose was increased weekly, first to 30 mg/d and then to 50 mg/d, during the dose-optimization period. Investigators could increase the dose through week 10 and decrease the dose (only once per participant) at any time; the LDX dose at week 11 was maintained through study endpoint (week 14/final study visit). […]

[2] = Same study, double-blind augmentation phase: safety (TEAEs, C-SSRS, vital signs, ECG, weight/BMI, laboratory); type: in vivo, human
Source text: Adverse events (AEs) were collected during the study and coded using the Medical Dictionary for Regulatory Activities, Version 11.1. Treatment-emergent AEs (TEAEs) were defined as AEs that started or deteriorated on or after the date of the first dose of study drug during the double-blind treatment phase and no later than 3 days following the last dose of study drug. The incidence of TEAEs of special interest, including psychiatric (psychosis/mania, suicide, aggression, or other) and nonpsychiatric (weight, clinical laboratory [liver enzymes], vital signs, and sexual dysfunction) was also assessed. Vital signs (sitting SBP and DBP, pulse, and sitting respiratory rate), and Columbia-Suicide Severity Rating Scale (C-SSRS; Posner K, Brent D, Lucas C, et al.) a semistructured interview assessing the occurrence, severity, and frequency of suicide-related thoughts and behaviors) were measured at screening and all study visits. Laboratory assessments were conducted at screening, week 8, week 11, and study endpoint; physical examinations were conducted at screening, week 8, and study endpoint.
Safety analyses during double-blind treatment were performed on the randomized safety analysis set (all participants who took dose of randomized augmentation treatment and had safety assessment after treatment initiation). AEs, vital signs, weight and body mass index (BMI), electrocardiograms (ECG) findings, laboratory results, and C-SSRS results were descriptively summarized.

[3] = test system: major depressive disorder (MDD); settings: augmentation of standard antidepressant treatment; cited from earlier work
[4] = escitalopram nonremitters, study endpoint
[5] = Visit 13 (week 14) / study endpoint
[6] = adjunctive therapy with escitalopram
[7] = double-blind augmentation phase, n = 88

## C[C@@H](Cc1ccccc1)NC(=O)[C@@H](N)CCCCN [LDX, N-[(1S)-1-methyl-2-phenylethyl]-L-lysinamide]
[1]; 'per protocol' analysis of non-remitting subjects, after 6 weeks, adjunctive to escitalopram 20 mg/day
  improvement compared to placebo on the mean total MADRS: −2.2
[1]; all randomized participants
  HAM-D17 50% decrease at week 14: 62 (70.5) n (%)
  HAM-D17 total score ≦10 at week 14: 37 (42.0) n (%)
  MADRS 50% decrease at week 14: 64 (72.7) n (%)
  MADRS total score ≦10 at week 14: 52 (59.1) n (%)
  HAM-D17 change in total score, LS mean change (90% CI): −3.9 (−5.0, −2.9)
[1]; all randomized participants (n = 85)
  QIDS-SR change in total score, LS mean change (90% CI): −2.5 (−3.1, −1.8)
[1]; all randomized participants, week 8 to week 14
  MADRS change in total score, LS mean change (90% CI): −4.8 (−6.3, −3.4)
[1]; analysis of MADRS items
  MADRS items related to appetite, sleep, or thoughts of self-harm: no significant worsening
[1]; analysis of MADRS items, all p≦0.08
  MADRS items showing improvement: improvement present in domains of mood, concentration, interest, and motivation
[1]; at endpoint
  adjusted effect size of MADRS total scores for LDX vs placebo: −0.3
[1]; escitalopram nonremitters
  HAM-D17 50% decrease at week 14: 41 (63.1) n (%)
  HAM-D17 total score ≦10 at week 14: 21 (32.3) n (%)
  MADRS 50% decrease at week 14: 43 (66.2) n (%)
  MADRS total score ≦10 at week 14: 32 (49.2) n (%)
  MDD symptoms vs placebo, clinician-assessed and patient self-reported measures: improved MDD symptoms vs placebo
  HAM-D17 change in total score, LS mean change (90% CI): −4.9 (−6.0, −3.9)
[1]; escitalopram nonremitters (n = 63)
  QIDS-SR change in total score, LS mean change (90% CI): −2.4 (−3.1, −1.6)
[1]; [4]
  proportion achieving MADRS remission (total score ≦10): 49.2%
  proportion achieving a 25% decrease in MADRS total score: 89.2%
  proportion of participants with a 50% decrease in MADRS total score: 66.2%
[1]; escitalopram remitters
  self-assessed MDD symptoms: improved self-assessed MDD symptoms
[1]; escitalopram remitters, augmentation baseline and study endpoint
  primary or secondary efficacy outcome measures, LDX vs placebo: no significant differences; also recorded: no treatment differences
[1]; full analysis set (FAS)
  all MADRS outcomes, LDX versus placebo: numerically greater improvement
[1]; subjects with total MADRS score >10 and <50% improvement in total MADRS score, adjunctive to escitalopram
  endpoint LS mean difference between Vyvanse and placebo, total MADRS: −3.9
[1]; table footnote, printed as escitalopram nonremitters (P = .0852)
  LS mean (90% CI) change in QIDS-SR total scores at week 14: For escitalopram nonremitters, LS mean (90% CI) change in QIDS-SR total scores at week 14 were −1.9 (−2.9, −0.9) and −0.4 (−1.4, −0.5) for those taking LDX and placebo, respectively (P = .0852)
[1]; week 14
  CGI-S: proportion of patients with a response ranging from no illness to mild illness: However, CGI-S scores at week 14 showed a numerically greater proporation of patients had a response ranging from no illness, to mild illness, with LDX (88.9%) vs placebo (61.3%)
[2]; LDX with escitalopram
  adverse effects beyond those previously seen: No significant adverse effects were seen that went beyond those previously seen with escitalopram and LDX
  increases in blood pressure and pulse rate: generally were small and consistent with product labeling
[2]; Visit 13 (week 14)
  BMI, mean (SD) change from augmentation baseline: −0.4 (0.70) kg/m^2
  ECG HR, mean (SD) change from augmentation baseline: 4.8 (8.64) bpm
  ECG QTcF, mean (SD) change from augmentation baseline: −4.9 (11.84) ms
  Weight, mean (SD) change from augmentation baseline: −1.2 (2.00) kg
[2]; [5]
  DBP, mean (SD) change from augmentation baseline: 0.9 (6.61) mmHg
  Pulse, mean (SD) change from augmentation baseline: 3.3 (8.45) bpm
  SBP, mean (SD) change from augmentation baseline: 2.3 (9.04) mmHg
[2]; [6]
  ECG and clinical laboratory changes: No clinically significant mean changes
  most commonly reported adverse events: dry mouth, headache, decreased appetite, and insomnia
[2]; adjunctive therapy with escitalopram, listed as VYVANSE
  ECG and clinical laboratory changes: No notable ECG changes or changes in clinical laboratory assessments
[2]; [7]
  TEAE: Decreased appetite: 6 (6.8) n (%)
  TEAE: Dry mouth: 10 (11.4) n (%)
  TEAE: Headache: 10 (11.4) n (%)
  TEAE: Insomnia: 4 (4.5) n (%)
  TEAE: Nasopharyngitis: 5 (5.7) n (%)
[2]; double-blind augmentation phase, randomized safety analysis set (n = 88)
  Any TEAE: 53 (60.2) n (%)
[2]; double-blind treatment
  abnormal hepatic enzymes (TEAE): 1.1%
  decreased weight (TEAE): 2.3%
  nonpsychiatric TEAEs of special interest: 9.1%
  psychiatric TEAE categorized as psychosis/mania, suicidal, or aggression: no participant
  psychiatric TEAE: abnormal dreams: 1.1%
  psychiatric TEAE: anxiety: 3.4%
  psychiatric TEAE: feeling jittery: 2.3%
  psychiatric TEAE: irritability: 3.4%
  psychiatric TEAE: somnolence, number of participants: 0
  psychiatric TEAEs of special interest: 18.2%
  vital-sign related TEAEs: 5.7%
[2]; during augmentation treatment
  suicidal behavior: No participants exhibited suicidal behavior
[2]; normal (18.5 to <25.0) at augmentation baseline
  patients remaining in BMI category at study endpoint: 81.8%
[2]; obese (30) at augmentation baseline
  patients remaining in BMI category at study endpoint: 82.5%
[2]; overweight (25.0 to <30.0) at augmentation baseline
  patients remaining in BMI category at study endpoint: 76.9%
[2]; randomized augmentation phase
  participants reporting at least 1 TEAE: 60.2%
  participants reporting mild TEAEs: 18.2%
  participants reporting moderate TEAEs: 30.7%
  participants reporting severe TEAEs: 11.4%
  study discontinuation due to TEAEs, number of participants: 2
[2]; randomized treatment
  incidence of decreased appetite: 6.8%
  incidence of dry mouth: 11.4%
  incidence of headache: 11.4%
  incidence of insomnia: 4.5%
  incidence of nasopharyngitis: 5.7%
[2]; week 9
  C-SSRS affirmative response (wished dead / not wake up), number of participants: 1
[2]; week 10
  C-SSRS affirmative response (wished dead / not wake up), number of participants: 2
[2]; week 14
  C-SSRS affirmative response (wished dead / not wake up), number of participants: 1

## O=C1CCc2ccc(OCCCCN3CCN(c4cccc(Cl)c4Cl)CC3)cc2N1 [aripiprazole]
[3]
  effect size for MADRS total scores vs placebo: 0.35
